Test results as given in patent US9464076B2, “Benzothiophene derivative” (Daiichi Sankyo Company, Limited, priority 2013, dated 2016).
pIC50: −log10 of the molar value. Counter-ions that a name gives are not always drawn.

Biological target: PDE10A (Homo sapiens (Human), UniProt Q9Y233)
Assay: Measurement of PDE10A inhibitory activity-2 (PDE10A fraction prepared from MOLT-4 cells)
Format: biochemical
Settings: PDE10A fraction from MOLT-4 cells (peak around 250 mM NaCl)
Protocol: A human acute lymphoblastic lymphoma T cell line MOLT-4 (which can be purchased under ATCC No. CRL-1582 from ATCC) was cultured in an RPMI1640 medium containing 10% fetal bovine serum to obtain 5×10^8 MOLT-4 cells. The cells were recovered by centrifugation and suspended in 10 ml of buffer solution A (25 mM Tris-HCl, 5 mM 2-mercaptoethanol, 2 mM benzamidine, 2 mM EDTA, and 0.1 mM 4-(2-aminoethyl)benzenesulfonyl hydrochloride, pH 7.5). The cells were homogenized using a Polytron homogenizer and centrifuged (4° C., 25,000 g, 10 minutes). Then, the supernatant was further ultracentrifuged (4° C., 100,000 g, 60 minutes). The obtained supernatant was filtered through a 0.2 μm filter to obtain a soluble fraction.
HiTrap Q HP column (5 ml×2, GE Healthcare Japan Corp.) equilibrated with buffer solution A was charged with the obtained soluble fraction. Phosphodiesterase was eluted with 300 ml of buffer solution A containing a linear gradient solution of 0 to 0.8 M NaCl to recover sixty 5-ml fractions. Each fraction was tested for cAMP-metabolizing phosphodiesterase activity.
On the other hand, total RNA was prepared from Jurkat cells, one type of human T cell, and similarly subjected to RT-PCR. […] Eur J Biochem. 1999, 266 (3), 1118-2 has reported that PDE10A from the rat striatum and testis is eluted as an active peak centered around 250 mM NaCl.
For these reasons, this fraction was used as a solution for the evaluation of PDE10A inhibitory activity. The obtained solution was used to calculate the inhibitory activity (IC50) of a test compound in the same way as in the aforementioned test.

Chain of PDE10A (Q9Y233 whole entry): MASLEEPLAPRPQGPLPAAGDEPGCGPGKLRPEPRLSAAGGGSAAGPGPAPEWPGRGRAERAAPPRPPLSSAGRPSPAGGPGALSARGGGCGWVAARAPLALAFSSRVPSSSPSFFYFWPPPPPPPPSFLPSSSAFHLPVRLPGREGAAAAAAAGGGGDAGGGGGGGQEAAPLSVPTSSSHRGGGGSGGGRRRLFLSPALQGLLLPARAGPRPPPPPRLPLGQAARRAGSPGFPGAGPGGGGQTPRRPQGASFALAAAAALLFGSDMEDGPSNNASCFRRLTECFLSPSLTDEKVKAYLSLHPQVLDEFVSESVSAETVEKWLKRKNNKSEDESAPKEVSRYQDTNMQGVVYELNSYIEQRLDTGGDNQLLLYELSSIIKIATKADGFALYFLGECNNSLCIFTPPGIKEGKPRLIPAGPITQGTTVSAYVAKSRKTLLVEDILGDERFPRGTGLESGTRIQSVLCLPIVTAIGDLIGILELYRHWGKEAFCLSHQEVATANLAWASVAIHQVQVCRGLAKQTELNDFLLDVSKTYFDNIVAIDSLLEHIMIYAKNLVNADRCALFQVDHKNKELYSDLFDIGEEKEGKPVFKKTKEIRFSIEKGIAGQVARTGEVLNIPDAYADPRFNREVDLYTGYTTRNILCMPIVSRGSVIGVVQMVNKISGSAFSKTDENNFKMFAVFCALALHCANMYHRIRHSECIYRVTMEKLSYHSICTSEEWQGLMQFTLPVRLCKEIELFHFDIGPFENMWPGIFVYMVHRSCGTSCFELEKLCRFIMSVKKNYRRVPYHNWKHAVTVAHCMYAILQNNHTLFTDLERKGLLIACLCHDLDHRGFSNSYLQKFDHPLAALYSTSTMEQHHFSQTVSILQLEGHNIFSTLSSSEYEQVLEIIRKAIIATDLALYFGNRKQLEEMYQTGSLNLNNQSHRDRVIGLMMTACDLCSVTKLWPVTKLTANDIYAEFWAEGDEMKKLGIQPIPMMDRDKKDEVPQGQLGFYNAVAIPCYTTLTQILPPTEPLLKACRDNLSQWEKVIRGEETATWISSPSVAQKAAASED

| Compound | pIC50 |
| --- | --- |
| CCC(CC)C(=O)c1cccc2c(C)c(C(=O)Nc3cc(C(C)(C)O)c4ccccc4n3)sc12 [Example 24, 7-(2-Ethylbutanoyl)-N-(4-(2-hydroxypropan-2-yl)quinolin-2-yl)-3-methylbenzo[b]thiophene-2-carboxamide] | 7.60 |
| COc1cc(NC(=O)c2sc3c(C(C)=O)ccc(C(C)=O)c3c2C)nc2ccccc12 [Example 12, 4,7-Diacetyl-N-(4-methoxyquinolin-2-yl)-3-methylbenzo[b]thiophene-2-carboxamide] | 8.36 |
| CCc1c(C(=O)Nc2cc(C(C)(C)O)c3ccccc3n2)sc2c(C(C)=O)ccc(C(C)=O)c12 [Example 7, 4,7-Diacetyl-3-ethyl-N-(4-(2-hydroxypropan-2-yl)quinolin-2-yl)benzo[b]thiophene-2-carboxamide] | 8.30 |
| COCc1ccc(C(C)=O)c2sc(C(=O)Nc3ccc4c(C(=O)OC)cccc4n3)c(C)c12 [Example 92, Methyl 2-(7-acetyl-4-(methoxymethyl)-3-methylbenzo[b]thiophene-2-carboxamido)quinoline-5-carboxylate] | 7.92 |
| COCc1ccc(C(C)=O)c2sc(C(=O)Nc3cc(CN4CCNCC4)c4ccccc4n3)c(C)c12 [Example 124, 7-Acetyl-4-(methoxymethyl)-3-methyl-N-(4-(piperazin-1-ylmethyl)quinolin-2-yl)benzo[b]thiophene-2-carboxamide] | 8.54 |
| COCc1ccc(C(C)=O)c2sc(C(=O)Nc3cc(CN4CCCC(O)C4)c4ccccc4n3)c(C)c12 (stereo not drawn) [Example 37, 7-Acetyl-N-(4-((3-hydroxypiperidin-1-yl)methyl)quinolin-2-yl)-4-(methoxymethyl)-3-methylbenzo[b]thiophene-2-carboxamide] | 9.30 |
| CCOCc1cccc2nc(NC(=O)c3sc4c(C(C)=O)ccc(COC)c4c3C)ccc12 [Example 70, 7-Acetyl-N-(5-(ethoxymethyl)quinolin-2-yl)-4-(methoxymethyl)-3-methylbenzo[b]thiophene-2-carboxamide] | 8.80 |
| CC(=O)c1ccc(C(C)=O)c2c(C)c(C(=O)Nc3cc(C(C)(C)O)c4ccccc4n3)sc12 [Example 2, 4,7-Diacetyl-N-(4-(2-hydroxypropan-2-yl)quinolin-2-yl)-3-methylbenzo[b]thiophene-2-carboxamide] | 8.59 |
| COCc1ccc(C(C)=O)c2sc(C(=O)Nc3cc(CN(C)CCO)c4ccccc4n3)c(C)c12 [Example 34, 7-Acetyl-N-(4-(((2-hydroxyethyl)(methyl)amino)methyl)quinolin-2-yl)-4-(methoxymethyl)-3-methylbenzo[b]thiophene-2-carboxamide dihydrochloride] | 9.03 |
| CC(=O)c1ccc(C(C)=O)c2sc(C(=O)Nc3cc(C(C)(C)O)c4ccccc4n3)cc12 [Example 8, 4,7-Diacetyl-N-(4-(2-hydroxypropan-2-yl)quinolin-2-yl)benzo[b]thiophene-2-carboxamide] | 7.92 |
| CC(=O)c1ccc(C(C)=O)c2c(C)c(C(=O)Nc3cc(C)c4ccccc4n3)sc12 [Example 11, 4,7-Diacetyl-3-methyl-N-(4-methylquinolin-2-yl)benzo[b]thiophene-2-carboxamide] | 8.66 |
| COCc1ccc(C(C)=O)c2sc(C(=O)Nc3ccc4c(COC(=O)CCC(=O)O)cccc4n3)c(C)c12 [Example 89, 4-((2-(7-Acetyl-4-(methoxymethyl)-3-methylbenzo[b]thiophene-2-carboxamido)quinolin-5-yl)methoxy)-4-oxobutanoic acid] | 9.43 |
| CC(=O)c1ccc(C(C)=O)c2c(C)c(C(=O)Nc3cc(CN4CC(O)C4)c4ccccc4n3)sc12 [Example 52, 4,7-Diacetyl-N-(4-((3-hydroxyazetidin-1-yl)methyl)quinolin-2-yl)-3-methylbenzo[b]thiophene-2-carboxamide] | 8.92 |
| CC(=O)c1ccc(COC(C)C)c2c(C)c(C(=O)Nc3cc(C(C)(C)O)c4ccccc4n3)sc12 [Example 31, 7-Acetyl-N-(4-(2-hydroxypropan-2-yl)quinolin-2-yl)-4-(isopropoxymethyl)-3-methylbenzo[b]thiophene-2-carboxamide] | 7.80 |
| Cc1c(C(=O)Nc2cc(C(C)(C)O)c3ccccc3n2)sc2c(C(=O)C3CCC3)cccc12 [Example 21, 7-(Cyclobutylcarbonyl)-N-(4-(2-hydroxypropan-2-yl)quinolin-2-yl)-3-methylbenzo[b]thiophene-2-carboxamide] | 9.17 |
| COCc1ccc(C(C)=O)c2sc(C(=O)Nc3ccc4c(C(=O)N5CC(F)(F)C5)cccc4n3)c(C)c12 [Example 100, 7-Acetyl-N-(5-((3,3-difluoroazetidin-1-yl)carbonyl)quinolin-2-yl)-4-(methoxymethyl)-3-methylbenzo[b]thiophene-2-carboxamide] | 9.38 |
| CCC(=O)c1cccc2c(C)c(C(=O)Nc3cc(C(C)(C)O)c4ccccc4n3)sc12 [Example 16, N-(4-(2-Hydroxypropan-2-yl)quinolin-2-yl)-3-methyl-7-propionylbenzo[b]thiophene-2-carboxamide] | 8.32 |
| CC(=O)c1ccc(C(C)=O)c2c(C)c(C(=O)Nc3cc(CO)c4ccccc4n3)sc12 [Example 14, 4,7-Diacetyl-N-(4-(hydroxymethyl)quinolin-2-yl)-3-methylbenzo[b]thiophene-2-carboxamide] | 9.05 |
| Cc1c(C(=O)Nc2cc(C(C)(C)O)c3ccccc3n2)sc2c(C(=O)C(C)(C)C)cccc12 [Example 22, N-(4-(2-Hydroxypropan-2-yl)quinolin-2-yl)-3-methyl-7-pivaloylbenzo[b]thiophene-2-carboxamide] | 9.00 |
| COCc1ccc(C(C)=O)c2sc(C(=O)Nc3cc(CN4CCC(F)CC4)c4ccccc4n3)c(C)c12 [Example 46, 7-Acetyl-N-(4-((4-fluoropiperidin-1-yl)methyl)quinolin-2-yl)-4-(methoxymethyl)-3-methylbenzo[b]thiophene-2-carboxamide] | 9.36 |
| CC(=O)c1ccc(C(C)O)c2c(C)c(C(=O)Nc3cc(C(C)(C)O)c4ccccc4n3)sc12 (stereo not drawn) [Example 9, 7-Acetyl-4-(1-hydroxyethyl)-N-(4-(2-hydroxypropan-2-yl)quinolin-2-yl)-3-methylbenzo[b]thiophene-2-carboxamide] | 8.11 |

Tested on: Male C57BL/6 Cr mice
Assay: Test on suppression of phencyclidine-induced hyperlocomotion in mice
Format: in vivo, mouse
Settings: Mus musculus, po, 1 h, locomotor activity, test compound 10 mg/kg oral, phencyclidine 5 mg/kg s.c. approx. 1 hour later, measured for 1 hour
Protocol: Male C57BL/6 Cr mice (Japan SLC, Inc.) (8 weeks old) were used in the experiment. A test compound was suspended at 1 mg/mL in a 0.5% hydroxypropylcellulose solution to prepare a suspension for administration. The suspension of the test compound or a solvent (0.5% hydroxypropylcellulose solution) was orally administered at a dose of 10 mL/kg to each mouse. After the administration, the mouse was immediately placed in a locomotor activity measurement apparatus (Muromachi Kikai Co., Ltd., locomotor activity measurement system SUPERMEX). Approximately 1 hour later, phencyclidine (5 mg/10 mL/kg) or a solvent (10 mL/kg saline) was subcutaneously administered to the mouse. The locomotor activity was measured from immediately after the subcutaneous administration to 1 hour later.
Percent inhibition exceeding 100 means that when the activity of the phencyclidine administration control group was defined as 100, the activity of the group given a test compound was lower than that of the solvent administration control group.

| Compound | inhibition in vivo at 10 mg/kg |
| --- | --- |
| COCc1ccc(C(C)=O)c2sc(C(=O)Nc3cc(N(C)C)c4ccccc4n3)c(C)c12 [Example 55, 7-Acetyl-N-(4-(dimethylamino)quinolin-2-yl)-4-(methoxymethyl)-3-methylbenzo[b]thiophene-2-carboxamide] | 127% |
| COCc1ccc(C(C)=O)c2sc(C(=O)Nc3ccc4c(C(=O)N5CCN(C)CC5)cccc4n3)c(C)c12 [Example 96, 7-Acetyl-4-(methoxymethyl)-3-methyl-N-(5-((4-methylpiperazin-1-yl)carbonyl)quinolin-2-yl)benzo[b]thiophene-2-carboxamide] | 65% |
| [2H]C([2H])([2H])OCc1ccc(C(C)=O)c2sc(C(=O)Nc3ccc4c(CO)cccc4n3)c(C)c12 [Example 120, 7-Acetyl-N-(5-(hydroxymethyl)quinolin-2-yl)-4-((^2H3)methoxymethyl)-3-methylbenzo[b]thiophene-2-carboxamide] | 52% |
| COCc1ccc(C(C)=O)c2sc(C(=O)Nc3ccc4c(CN5CC[C@@H](F)C5)cccc4n3)c(C)c12 [Example 60, (R)-7-Acetyl-N-(5-((3-fluoropyrrolidin-1-yl)methyl)quinolin-2-yl)-4-(methoxymethyl)-3-methylbenzo[b]thiophene-2-carboxamide hydrochloride] | 107% |
| COCc1ccc(C(C)=O)c2sc(C(=O)Nc3ccc4ccccc4n3)c(C)c12 [Example 49, 7-Acetyl-4-(methoxymethyl)-3-methyl-N-(quinolin-2-yl)benzo[b]thiophene-2-carboxamide] | 104% |

Same assay, conditions: locomotor activity, test compound 10 mg/kg oral, phencyclidine 5 mg/kg s.c. approx. 1 hour later, measured for 1 hour

| Compound | % inhibition |
| --- | --- |
| COCc1ccc(C(C)=O)c2sc(C(=O)Nc3ccc4c(CO)cccc4n3)c(C)c12.Cl [Example 77, 7-Acetyl-N-(5-(hydroxymethyl)quinolin-2-yl)-4-(methoxymethyl)-3-methylbenzo[b]thiophene-2-carboxamide hydrochloride] | 96% |
